Common to all, as to type: cell-based, human
Assay [1] relates to A549 cells. Description: Growth response, MTT dye conversion assay. Conditions: low doses (FIG. 13 as printed). On the technique in general: Tetrazolium assays rely on reduction of a dye to a coloured formazan, in cell work by metabolically active cells.
Assay [2] has as its system M14. Description: NCI multiple cell line test (SRB). Conditions: M14 (Melanoma), 48 h. As for the experimental part: (§1) The NCI tested MT477 60 cell line test, and reported the GI50, TGI, and LC50 values of MT477 for each cell line, reported herein at Table 3.
(§2) Methodology: The NCI conducted a test of the MT477 drug against about 60 human cell lines, with a minimum of five concentrations of MT477 at 10-fold dilutions, with no more than 5(10)^−5 molar of drug being used. A 48 hour continuous drug exposure was used, and a sulforhodamine B (SRB) protein assay was used to estimate cell viability and growth. The human tumor cell lines of the cancer screening panel were grown in RPMI 1640 medium containing 5% fetal bovine serum and 2 mM L-glutamine. Cells were inoculated into 96 well microtiter plates in 100 μL at plating densities ranging from 5,000 to 40,000 cells/well depending on the doubling time of individual cell lines. After cell inoculation, the microtiter plates are incubated at 37° C., 5% CO2, 95% air, and 100% relative humidity for 24 h prior to addition of experimental drugs.
(§3) After 24 h, two plates of each cell line were fixed in situ with TCA, to represent a measurement of the cell population for each cell line at the time of drug addition (Tz). MT477 was solubilized in dimethyl sulfoxide at 400-fold the desired final maximum test concentration and stored frozen prior to use. At the time of drug addition, an aliquot of frozen concentrate was thawed and diluted to twice the desired final maximum test concentration with complete medium containing 50 μg/ml gentamicin. Additional four, 10-fold or ½ log serial dilutions were made to provide a total of five drug concentrations plus control. Aliquots of 100 μl of these different drug dilutions were added to the appropriate microtiter wells already containing 100 μl of medium, resulting in the required final drug concentrations.
(§4) Following drug addition, the plates were incubated for an additional 48 h at 37° C., 5% CO2, 95% air, and 100% relative humidity. For adherent cells, the assay was terminated by the addition of cold TCA. Cells were fixed in situ by the gentle addition of 50 μl of cold 50% (w/v) TCA (final concentration, 10% TCA) and incubated for 60 minutes at 4° C. The supernatant was discarded, and the plates were washed five times with tap water and air dried. Sulforhodamine B (SRB) solution (100 μl) at 0.4% (w/v) in 1% acetic acid was added to each well, and plates were incubated for 10 minutes at room temperature. After staining, unbound dye was removed by washing five times with 1% acetic acid and the plates were air-dried. Bound stain was subsequently solubilized with 10 mM trizma base, and the absorbance was read on an automated plate reader at a wavelength of 515 nm. For suspension cells, the methodology was the same except that the assay was terminated by fixing settled cells at the bottom of the wells by gently adding 50 μl of 80% TCA (final concentration, 16% TCA). Using the seven absorbance measurements (time zero, (Tz), control growth, (C), and test growth in the presence of drug at the five concentration levels (Ti)), the percentage growth was calculated at each of the drug concentrations levels. Percentage growth inhibition was calculated as: [(Ti−Tz)/(C−Tz)]×100 for concentrations for which Ti>/=Tz [(Ti−Tz)/Tz]×100 for concentrations for which Ti<Tz.
(§5) Three dose response parameters were calculated for each experimental agent. Growth inhibition of 50% (GI50) was calculated from [(Ti−Tz)/(C−Tz)]×100=50, which is the drug concentration resulting in a 50% reduction in the net protein increase (as measured by SRB staining) in control cells during the drug incubation. The drug concentration resulting in total growth inhibition (TGI) was calculated from Ti=Tz. The LC50 (concentration of drug resulting in a 50% reduction in the measured protein at the end of the drug treatment as compared to that at the beginning) indicating a net loss of cells following treatment was calculated from [(Ti−Tz)/Tz]×100=−50. […]

Assay [3] concerns NCI-H322M. Description: NCI multiple cell line test (SRB). Conditions: NCI-H322M (Non-Small Cell Lung Cancer), 48 h. As for the experimental part:
as §1, §2, §3, §4, §5

The test system of assay [4] is HL-60 (TB). As to the kind of experiment: NCI multiple cell line test (SRB). The following applies: HL-60 (TB) (Leukemia), 48 h. How it is done:
as §1, §2, §3, §4, §5

Assay [5] relates to UACC-62. Description: NCI multiple cell line test (SRB). The following applies: UACC-62 (Melanoma), 48 h.
Where [6] appears, read: Homo sapiens, read-out: −log10GI50 (converted).

On to `COC(=O)C1=C(C(=O)OC)SC2(S1)C(C(=O)OC)=C(C(=O)OC)SC1=C2c2cccc(OC)c2N(C(=O)CN2C(=O)CCC2=O)C1(C)C` [MT477], for which the “growth response at low concentrations” value in assay [1] is on record as “effective even at very low doses, including micromolar dosages”. The “−log10GI50” value in assay [2] was 602 molar. Also, the IC50 was 6460 nM in assay [3] (setting [6]), 2190 nM in assay [4] (setting [6]) and 1170 nM in assay [5] (setting [6]). Moreover, the results for the “−log10TGI” value in assay [3], in assay [4] and in assay [5] were 4.87 molar, 4.83 molar and 5.55 molar, respectively. Moreover, the “−log10LC50” value is “* (effect not reached at maximum dose of 0.05 millimolar)” in assay [4] and 5.03 molar in assay [5].

(Values after patent publication US7652029B2, “Therapeutic compound and treatments” (priority 2004, dated 2010).)
